# Assay results taken from ChEMBL document CHEMBL5303573, “Mapping human microbiome drug metabolism by gut bacteria and their genes” (Nature, 2019).
# Assay: The drug is tested on Bifidobacterium ruminantium strain: fecal isolate for biotransformation. The drug concentrations were measured before and after a 12-h incubation by liquid-chromatography-coupled mass spectrometry (LC–MS)
# Details: 2 µM
row,SMILES,Bacterial Biotransformation
1,CCOc1ccc(NC(C)=O)cc1 [PHENACETIN],Compound NOT metabolized
2,C[C@]12C=CC(=O)C=C1CC[C@@H]1[C@@H]2C(=O)C[C@@]2(C)[C@H]1CC[C@]2(O)C(=O)CO [PREDNISONE],Compound NOT metabolized
3,CCC(COC(=O)c1cc(OC)c(OC)c(OC)c1)(c1ccccc1)N(C)C.O=C(O)/C=C\C(=O)O (stereo not given),Compound metabolized

# Assay: The drug is tested on Alistipes indistinctus strain: DSM22520 for biotransformation. The drug concentrations were measured before and after a 12-h incubation by liquid-chromatography-coupled mass spectrometry (LC–MS)
# Details: 2 µM
row,SMILES,Bacterial Biotransformation
1,CCOc1ccc(NC(C)=O)cc1 [PHENACETIN],Compound NOT metabolized
2,C[C@]12C=CC(=O)C=C1CC[C@@H]1[C@@H]2C(=O)C[C@@]2(C)[C@H]1CC[C@]2(O)C(=O)CO [PREDNISONE],Compound NOT metabolized
3,CCC(COC(=O)c1cc(OC)c(OC)c(OC)c1)(c1ccccc1)N(C)C.O=C(O)/C=C\C(=O)O (stereo not given),Compound metabolized

# Assay: The drug is tested on Bacteroides fragilis strain: HMW615 for biotransformation. The drug concentrations were measured before and after a 12-h incubation by liquid-chromatography-coupled mass spectrometry (LC–MS)
# Details: 2 µM
row,SMILES,Bacterial Biotransformation
1,CCOc1ccc(NC(C)=O)cc1 [PHENACETIN],Compound NOT metabolized
2,C[C@]12C=CC(=O)C=C1CC[C@@H]1[C@@H]2C(=O)C[C@@]2(C)[C@H]1CC[C@]2(O)C(=O)CO [PREDNISONE],Compound NOT metabolized
3,CCC(COC(=O)c1cc(OC)c(OC)c(OC)c1)(c1ccccc1)N(C)C.O=C(O)/C=C\C(=O)O (stereo not given),Compound NOT metabolized

# Assay: The drug is tested on Bacteroides uniformis strain: ATCC8492 for biotransformation. The drug concentrations were measured before and after a 12-h incubation by liquid-chromatography-coupled mass spectrometry (LC–MS)
# Details: 2 µM
row,SMILES,Bacterial Biotransformation
1,CCOc1ccc(NC(C)=O)cc1 [PHENACETIN],Compound NOT metabolized
2,C[C@]12C=CC(=O)C=C1CC[C@@H]1[C@@H]2C(=O)C[C@@]2(C)[C@H]1CC[C@]2(O)C(=O)CO [PREDNISONE],Compound NOT metabolized
3,CCC(COC(=O)c1cc(OC)c(OC)c(OC)c1)(c1ccccc1)N(C)C.O=C(O)/C=C\C(=O)O (stereo not given),Compound metabolized

# Assay: The drug is tested on Bacteroides vulgatus strain: ATCC8482 for biotransformation. The drug concentrations were measured before and after a 12-h incubation by liquid-chromatography-coupled mass spectrometry (LC–MS)
# Details: phocaeicola vulgatus, 2 µM
row,SMILES,Bacterial Biotransformation
1,CCOc1ccc(NC(C)=O)cc1 [PHENACETIN],Compound NOT metabolized
2,C[C@]12C=CC(=O)C=C1CC[C@@H]1[C@@H]2C(=O)C[C@@]2(C)[C@H]1CC[C@]2(O)C(=O)CO [PREDNISONE],Compound NOT metabolized
3,CCC(COC(=O)c1cc(OC)c(OC)c(OC)c1)(c1ccccc1)N(C)C.O=C(O)/C=C\C(=O)O (stereo not given),Compound NOT metabolized

# Assay: The drug is tested on Bacteroides xylanisolvens strain: DSM18836 for biotransformation. The drug concentrations were measured before and after a 12-h incubation by liquid-chromatography-coupled mass spectrometry (LC–MS)
# Details: 2 µM
row,SMILES,Bacterial Biotransformation
1,CCOc1ccc(NC(C)=O)cc1 [PHENACETIN],Compound NOT metabolized
2,C[C@]12C=CC(=O)C=C1CC[C@@H]1[C@@H]2C(=O)C[C@@]2(C)[C@H]1CC[C@]2(O)C(=O)CO [PREDNISONE],Compound NOT metabolized
3,CCC(COC(=O)c1cc(OC)c(OC)c(OC)c1)(c1ccccc1)N(C)C.O=C(O)/C=C\C(=O)O (stereo not given),Compound metabolized

# Assay: The drug is tested on Odoribacter splanchnicus strain: fecal isolate for biotransformation. The drug concentrations were measured before and after a 12-h incubation by liquid-chromatography-coupled mass spectrometry (LC–MS)
# Details: 2 µM
row,SMILES,Bacterial Biotransformation
1,CCOc1ccc(NC(C)=O)cc1 [PHENACETIN],Compound NOT metabolized
2,C[C@]12C=CC(=O)C=C1CC[C@@H]1[C@@H]2C(=O)C[C@@]2(C)[C@H]1CC[C@]2(O)C(=O)CO [PREDNISONE],Compound NOT metabolized
3,CCC(COC(=O)c1cc(OC)c(OC)c(OC)c1)(c1ccccc1)N(C)C.O=C(O)/C=C\C(=O)O (stereo not given),Compound metabolized

# Assay: The drug is tested on Blautia hansenii strain: DSM20583 for biotransformation. The drug concentrations were measured before and after a 12-h incubation by liquid-chromatography-coupled mass spectrometry (LC–MS)
# Details: 2 µM
row,SMILES,Bacterial Biotransformation
1,CCOc1ccc(NC(C)=O)cc1 [PHENACETIN],Compound NOT metabolized
2,C[C@]12C=CC(=O)C=C1CC[C@@H]1[C@@H]2C(=O)C[C@@]2(C)[C@H]1CC[C@]2(O)C(=O)CO [PREDNISONE],Compound NOT metabolized
3,CCC(COC(=O)c1cc(OC)c(OC)c(OC)c1)(c1ccccc1)N(C)C.O=C(O)/C=C\C(=O)O (stereo not given),Compound metabolized

# Assay: The drug is tested on Clostridium sporogenes strain: ATCC15579 for biotransformation. The drug concentrations were measured before and after a 12-h incubation by liquid-chromatography-coupled mass spectrometry (LC–MS)
# Details: 2 µM
row,SMILES,Bacterial Biotransformation
1,CCOc1ccc(NC(C)=O)cc1 [PHENACETIN],Compound NOT metabolized
2,C[C@]12C=CC(=O)C=C1CC[C@@H]1[C@@H]2C(=O)C[C@@]2(C)[C@H]1CC[C@]2(O)C(=O)CO [PREDNISONE],Compound NOT metabolized
3,CCC(COC(=O)c1cc(OC)c(OC)c(OC)c1)(c1ccccc1)N(C)C.O=C(O)/C=C\C(=O)O (stereo not given),Compound metabolized

# Assay: The drug is tested on Coprococcus comes strain: ATCC27758 for biotransformation. The drug concentrations were measured before and after a 12-h incubation by liquid-chromatography-coupled mass spectrometry (LC–MS)
# Type: ADME
# Design: dose 2 uM, timepoint 0 vs 12 hours
# Details: 2 µM
row,SMILES,Bacterial Biotransformation
1,CCOc1ccc(NC(C)=O)cc1 [PHENACETIN],Compound NOT metabolized
2,C[C@]12C=CC(=O)C=C1CC[C@@H]1[C@@H]2C(=O)C[C@@]2(C)[C@H]1CC[C@]2(O)C(=O)CO [PREDNISONE],Compound NOT metabolized
3,CCC(COC(=O)c1cc(OC)c(OC)c(OC)c1)(c1ccccc1)N(C)C.O=C(O)/C=C\C(=O)O (stereo not given),Compound metabolized

# Assay: The drug is tested on Dorea formicigenerans strain: ATCC27755 for biotransformation. The drug concentrations were measured before and after a 12-h incubation by liquid-chromatography-coupled mass spectrometry (LC–MS)
# Details: 2 µM
row,SMILES,Bacterial Biotransformation
1,CCOc1ccc(NC(C)=O)cc1 [PHENACETIN],Compound NOT metabolized
2,C[C@]12C=CC(=O)C=C1CC[C@@H]1[C@@H]2C(=O)C[C@@]2(C)[C@H]1CC[C@]2(O)C(=O)CO [PREDNISONE],Compound NOT metabolized
3,CCC(COC(=O)c1cc(OC)c(OC)c(OC)c1)(c1ccccc1)N(C)C.O=C(O)/C=C\C(=O)O (stereo not given),Compound metabolized

# Assay: The drug is tested on Enterococcus faecalis strain: V583 for biotransformation. The drug concentrations were measured before and after a 12-h incubation by liquid-chromatography-coupled mass spectrometry (LC–MS)
# Details: 2 µM
row,SMILES,Bacterial Biotransformation
1,CCOc1ccc(NC(C)=O)cc1 [PHENACETIN],Compound NOT metabolized
2,C[C@]12C=CC(=O)C=C1CC[C@@H]1[C@@H]2C(=O)C[C@@]2(C)[C@H]1CC[C@]2(O)C(=O)CO [PREDNISONE],Compound NOT metabolized
3,CCC(COC(=O)c1cc(OC)c(OC)c(OC)c1)(c1ccccc1)N(C)C.O=C(O)/C=C\C(=O)O (stereo not given),Compound metabolized

# Assay: The drug is tested on Eubacterium ventriosum strain: ATCC27560 for biotransformation. The drug concentrations were measured before and after a 12-h incubation by liquid-chromatography-coupled mass spectrometry (LC–MS)
# Type: ADME
# Design: dose 2 uM, timepoint 0 vs 12 hours
# Details: 2 µM
row,SMILES,Bacterial Biotransformation
1,CCOc1ccc(NC(C)=O)cc1 [PHENACETIN],Compound NOT metabolized
2,C[C@]12C=CC(=O)C=C1CC[C@@H]1[C@@H]2C(=O)C[C@@]2(C)[C@H]1CC[C@]2(O)C(=O)CO [PREDNISONE],Compound NOT metabolized
3,CCC(COC(=O)c1cc(OC)c(OC)c(OC)c1)(c1ccccc1)N(C)C.O=C(O)/C=C\C(=O)O (stereo not given),Compound metabolized

# Assay: The drug is tested on Ruminococcus lactaris strain: ATCC29176 for biotransformation. The drug concentrations were measured before and after a 12-h incubation by liquid-chromatography-coupled mass spectrometry (LC–MS)
# Details: 2 µM
row,SMILES,Bacterial Biotransformation
1,CCOc1ccc(NC(C)=O)cc1 [PHENACETIN],Compound NOT metabolized
2,C[C@]12C=CC(=O)C=C1CC[C@@H]1[C@@H]2C(=O)C[C@@]2(C)[C@H]1CC[C@]2(O)C(=O)CO [PREDNISONE],Compound NOT metabolized
3,CCC(COC(=O)c1cc(OC)c(OC)c(OC)c1)(c1ccccc1)N(C)C.O=C(O)/C=C\C(=O)O (stereo not given),Compound metabolized

# Assay: The drug is tested on Ruminococcus torques strain: ATCC27756 for biotransformation. The drug concentrations were measured before and after a 12-h incubation by liquid-chromatography-coupled mass spectrometry (LC–MS)
# Type: ADME
# Design: dose 2 uM, timepoint 0 vs 12 hours
# Details: 2 µM
row,SMILES,Bacterial Biotransformation
1,CCOc1ccc(NC(C)=O)cc1 [PHENACETIN],Compound NOT metabolized
2,C[C@]12C=CC(=O)C=C1CC[C@@H]1[C@@H]2C(=O)C[C@@]2(C)[C@H]1CC[C@]2(O)C(=O)CO [PREDNISONE],Compound NOT metabolized
3,CCC(COC(=O)c1cc(OC)c(OC)c(OC)c1)(c1ccccc1)N(C)C.O=C(O)/C=C\C(=O)O (stereo not given),Compound metabolized

# Assay: The drug is tested on Providencia rettgeri strain: DSM1131 for biotransformation. The drug concentrations were measured before and after a 12-h incubation by liquid-chromatography-coupled mass spectrometry (LC–MS)
# Type: ADME
# Design: dose 2 uM, timepoint 0 vs 12 hours
# Details: 2 µM
row,SMILES,Bacterial Biotransformation
1,CCOc1ccc(NC(C)=O)cc1 [PHENACETIN],Compound NOT metabolized
2,C[C@]12C=CC(=O)C=C1CC[C@@H]1[C@@H]2C(=O)C[C@@]2(C)[C@H]1CC[C@]2(O)C(=O)CO [PREDNISONE],Compound NOT metabolized
3,CCC(COC(=O)c1cc(OC)c(OC)c(OC)c1)(c1ccccc1)N(C)C.O=C(O)/C=C\C(=O)O (stereo not given),Compound NOT metabolized

# Details: segatella copri, 12 h, 2 µM
# Description: The drug is tested on Prevotella copri strain: DSM18205 for biotransformation. The drug concentrations were measured before and after a 12-h incubation by liquid-chromatography-coupled mass spectrometry (LC–MS)
row,SMILES,Bacterial Biotransformation
1,CCOc1ccc(NC(C)=O)cc1 [PHENACETIN],Compound NOT metabolized
2,C[C@]12C=CC(=O)C=C1CC[C@@H]1[C@@H]2C(=O)C[C@@]2(C)[C@H]1CC[C@]2(O)C(=O)CO [PREDNISONE],Compound NOT metabolized
3,CCC(COC(=O)c1cc(OC)c(OC)c(OC)c1)(c1ccccc1)N(C)C.O=C(O)/C=C\C(=O)O (stereo not given),Compound metabolized

# Details: anaerostipes sp., 12 h, 2 µM
# Description: The drug is tested on Anaerostipes sp. strain: fecal isolate for biotransformation. The drug concentrations were measured before and after a 12-h incubation by liquid-chromatography-coupled mass spectrometry (LC–MS)
row,SMILES,Bacterial Biotransformation
1,CCOc1ccc(NC(C)=O)cc1 [PHENACETIN],Compound NOT metabolized
2,C[C@]12C=CC(=O)C=C1CC[C@@H]1[C@@H]2C(=O)C[C@@]2(C)[C@H]1CC[C@]2(O)C(=O)CO [PREDNISONE],Compound NOT metabolized
3,CCC(COC(=O)c1cc(OC)c(OC)c(OC)c1)(c1ccccc1)N(C)C.O=C(O)/C=C\C(=O)O (stereo not given),Compound metabolized

# Details: roseburia intestinalis, 12 h, 2 µM
# Description: The drug is tested on Roseburia intestinalis strain: L1-82 for biotransformation. The drug concentrations were measured before and after a 12-h incubation by liquid-chromatography-coupled mass spectrometry (LC–MS)
row,SMILES,Bacterial Biotransformation
1,CCOc1ccc(NC(C)=O)cc1 [PHENACETIN],Compound NOT metabolized
2,C[C@]12C=CC(=O)C=C1CC[C@@H]1[C@@H]2C(=O)C[C@@]2(C)[C@H]1CC[C@]2(O)C(=O)CO [PREDNISONE],Compound NOT metabolized
3,CCC(COC(=O)c1cc(OC)c(OC)c(OC)c1)(c1ccccc1)N(C)C.O=C(O)/C=C\C(=O)O (stereo not given),Compound metabolized

# Details: akkermansia muciniphila, 12 h, 2 µM
# Description: The drug is tested on Akkermansia muciniphila strain: ATCC BAA-835 for biotransformation. The drug concentrations were measured before and after a 12-h incubation by liquid-chromatography-coupled mass spectrometry (LC–MS)
row,SMILES,Bacterial Biotransformation
1,CCOc1ccc(NC(C)=O)cc1 [PHENACETIN],Compound NOT metabolized
2,C[C@]12C=CC(=O)C=C1CC[C@@H]1[C@@H]2C(=O)C[C@@]2(C)[C@H]1CC[C@]2(O)C(=O)CO [PREDNISONE],Compound NOT metabolized
3,CCC(COC(=O)c1cc(OC)c(OC)c(OC)c1)(c1ccccc1)N(C)C.O=C(O)/C=C\C(=O)O (stereo not given),Compound metabolized
